Patent publication US12459974B2, “Bicyclic peptide ligands specific for Nectin-4” (priority 2018, dated 2025)
*1 amine or outer side, *2 acyl side, *3 side chain or, on linkers, in order; H or OH if unused. Where a SMILES comes first, the peptide text is derived from it. Bridges are numbered along the chain shown (N, C = ends). TATA = O=C(CC[*:1])N1CN(C(=O)CC[*:2])CN(C(=O)CC[*:3])C1

Target: T1, human Nectin-4 (Homo sapiens, UniProt Q96NY8)
T1 sequence (Q96NY8 32-510): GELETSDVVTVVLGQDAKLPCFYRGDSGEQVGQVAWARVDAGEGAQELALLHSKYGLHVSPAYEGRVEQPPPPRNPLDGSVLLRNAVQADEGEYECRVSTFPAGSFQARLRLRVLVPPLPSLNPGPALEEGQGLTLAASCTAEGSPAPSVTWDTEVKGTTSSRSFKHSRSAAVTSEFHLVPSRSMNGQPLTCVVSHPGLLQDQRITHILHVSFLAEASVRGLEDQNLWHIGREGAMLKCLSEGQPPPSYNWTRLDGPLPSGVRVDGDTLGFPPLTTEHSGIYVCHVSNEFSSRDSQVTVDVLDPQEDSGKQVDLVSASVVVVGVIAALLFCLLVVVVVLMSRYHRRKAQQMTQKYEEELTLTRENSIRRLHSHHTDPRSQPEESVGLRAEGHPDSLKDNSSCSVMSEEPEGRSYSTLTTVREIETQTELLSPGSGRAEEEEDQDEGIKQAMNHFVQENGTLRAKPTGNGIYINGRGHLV
Assay: Nectin-4 competition binding assay (fluorescence polarisation)
Conditions: competition with fluorescent peptide SEQ ID NO: 217; read-out: Ki
Experimental: Peptides were diluted to an appropriate concentration in assay buffer as described in the direct binding assay with a maximum of 5% DMSO, then serially diluted 1 in 2. Five μL of diluted peptide was added to the plate followed by 10 μL of human Nectin-4, then 10 μL fluorescent peptide added. Measurements were conducted as for the direct binding assay, however the gain was determined prior to the first measurement. Data analysis was in Systat Sigmaplot version 12.0 where the mP values were fit to a user defined cubic equation to generate a Ki value: • f=ymin+(ymax−ymin)/Lig*((Lig*((2*((Klig+Kcomp+Lig+Comp-Prot*c)^2-3*(Kcomp*(Lig-Prot*c)+Klig*(Comp-Prot*c)+Klig*Kcomp))^0.5*COS(ARCCOS((−2*(Klig+Kcomp+Lig+Comp-Prot*c)^3+9*(Klig+Kcomp+Lig+Comp-Prot*c)*(Kcomp*(Lig-Prot*c)+Klig*(Comp-Prot*c)+Klig*Kcomp)−27*(−1*Klig*Kcomp*Prot*c)/(2*((((Klig+Kcomp+Lig+Comp-Prot*c)^2−3*(Kcomp*(Lig-Prot*c)+Klig*(Comp-Prot*c)+Klig*Kcomp))^3)^0.5)))/3))−(Klig+Kcomp+Lig+Comp-Prot*c)))/((3*Klig)+((2*((Klig+Kcomp+Lig+Comp-Prot*c)^2−3*(Kcomp*(Lig-Prot*c)+Klig*(Comp-Prot*c)+Klig*Kcomp))^0.5*COS (ARCCOS ((−2*(Klig+Kcomp+Lig+Comp-Prot*c)^3+9*(Klig+Kcomp+Lig+Comp-Prot*c)*(Kcomp*(Lig-Prot*c)+Klig*(Comp-Prot*c)+Klig*Kcomp)-27*(−1*Klig*Kcomp*Prot*c))/(2*((((Klig+Kcomp+Lig+Comp-Prot*c)^2-3*(Kcomp*(Lig-Prot*c)+Klig*(Comp-Prot+c)+Klig*Kcomp))^3)^0.5))/3)−(Klig+Kcomp+Lig+Comp-Prot*c)))).
“Lig”, “KLig” and “Prot” were all defined values relating to: fluorescent peptide concentration, the Kd of the fluorescent peptide and Nectin concentration respectively.

Structure (SMILES) | Ki [nM]
CC[C@H](C)[C@@H]1NC(=O)[C@@H]2CCCN2C(=O)[C@H](Cc2c[nH]c3ccccc23)NC(=O)[C@H](CO)NC(=O)[C@H](Cc2c[nH]c3ccccc23)NC(=O)[C@H](CC(N)=O)NC(=O)[C@H](CCCNC(=N)N)NC(=O)[C@H](CCSC)NC(=O)[C@@H]2CSCCC(=O)N3CN(CN(C3)C(=O)CCSC[C@H](NC(=O)[C@H](C)N)C(=O)N3CCC[C@H]3C(=O)N[C@@H](Cc3ccccc3)C(=O)NCC(=O)N2)C(=O)CCSC[C@@H](C(=O)N[C@@H](C)C(N)=O)NC(=O)[C@H](Cc2c[nH]c3ccccc23)NC1=O [BCY429, A-(SEQ ID NO: 2)-A] (H-ACPFGCMRNWSWPIWCA-NH2; linker 2-6-16 via TATA; N-terminus and C-terminus assumed) | 42.6
CC[C@H](C)[C@@H]1NC(=O)[C@H](CCCNC(=N)N)NC(=O)CNC(=O)[C@@H]2CSCCC(=O)N3CN(CN(C3)C(=O)CCSC[C@@H](C(=O)N[C@@H](C)C(N)=O)NC1=O)C(=O)CCSC[C@H](NC(=O)[C@H](C)N)C(=O)N[C@@H](Cc1c[nH]c3ccccc13)C(=O)N1CCC[C@H]1C(=O)N[C@@H](CC(C)C)C(=O)N[C@@H](CC(=O)O)C(=O)N1CCC[C@H]1C(=O)N[C@@H](Cc1ccc(O)cc1)C(=O)N[C@@H](Cc1c[nH]c3ccccc13)C(=O)N2 [BCY430, A-(SEQ ID NO: 43)-A] (H-ACWPLDPYWCGRICA-NH2; linker 2-10-14 via TATA; N-terminus and C-terminus assumed) | 310
CC[C@H](C)[C@@H]1NC(=O)[C@H](CCCNC(=N)N)NC(=O)CNC(=O)[C@@H]2CSCCC(=O)N3CN(CN(C3)C(=O)CCSC[C@@H](C(=O)N[C@@H](C)C(N)=O)NC1=O)C(=O)CCSC[C@H](NC(=O)[C@H](Cc1c[nH]c3ccccc13)NC(=O)[C@H](CC(=O)O)NC(=O)[C@@H](N)CC(=O)O)C(=O)N[C@@H](C)C(=O)N1CCC[C@H]1C(=O)N[C@@H](CC(C)C)C(=O)N[C@@H](CC(=O)O)C(=O)N[C@@H](CC(=O)O)C(=O)N[C@@H](Cc1ccc(O)cc1)C(=O)N[C@@H](Cc1c[nH]c3ccccc13)C(=O)N2 [BCY433, DDW-(SEQ ID NO: 32)-A] (H-DDWCAPLDDYWCGRICA-NH2; linker 4-12-16 via TATA; N-terminus and C-terminus assumed) | 69.4
CC[C@H](C)[C@@H]1NC(=O)[C@@H]2CCCN2C(=O)[C@H](Cc2c[nH]c3ccccc23)NC(=O)[C@H](CO)NC(=O)[C@H](Cc2c[nH]c3ccccc23)NC(=O)[C@H]([C@@H](C)O)NC(=O)[C@H](CCC(=O)O)NC(=O)[C@H](CCSC)NC(=O)[C@@H]2CSCCC(=O)N3CN(CN(C3)C(=O)CCSC[C@H](NC(=O)[C@H](C)NC(=O)[C@H](CC(=O)O)NC(=O)[C@@H](N)CC(=O)O)C(=O)N3CCC[C@H]3C(=O)N[C@@H](Cc3ccccc3)C(=O)NCC(=O)N2)C(=O)CCSC[C@@H](C(=O)N[C@@H](C)C(N)=O)NC(=O)[C@H](Cc2c[nH]c3ccccc23)NC1=O [BCY3386, DDA-(SEQ ID NO: 45)-A] (H-DDACPFGCMETWSWPIWCA-NH2; linker 4-8-18 via TATA; N-terminus and C-terminus assumed) | 80.2
CC[C@H](C)[C@@H]1NC(=O)[C@@H]2CCCN2C(=O)[C@H](Cc2c[nH]c3ccccc23)NC(=O)[C@H](CO)NC(=O)[C@H](Cc2c[nH]c3ccccc23)NC(=O)[C@H](CC(=O)O)NC(=O)[C@H](CCCCN)NC(=O)[C@H](CCSC)NC(=O)[C@@H]2CSCCC(=O)N3CN(CN(C3)C(=O)CCSC[C@H](NC(=O)[C@H](CC(N)=O)NC(=O)[C@H](CC(=O)O)NC(=O)[C@@H](N)CO)C(=O)N3CCC[C@H]3C(=O)N[C@@H](Cc3ccccc3)C(=O)NCC(=O)N2)C(=O)CCSC[C@@H](C(=O)N[C@@H](C)C(N)=O)NC(=O)[C@H](Cc2c[nH]c3ccccc23)NC1=O [BCY3387, SDN-(SEQ ID NO: 15)-A] (H-SDNCPFGCMKDWSWPIWCA-NH2; linker 4-8-18 via TATA; N-terminus and C-terminus assumed) | 234
